Test results reported in the CombiSolv-Exp solvation set (Vermeire and Green 2021).

Assay: solvent given as SMILES

CCC(C)C(C)O (stereo unspecified)
Details	solvation free energy, 298 K [kcal/mol]
in CCCCCCCC	-4.87
in CCCCCCCCCC	-4.81

C=CC(=C)CCC=C(C)C
Details	solvation free energy, 298 K [kcal/mol]
in O	-0.5

CCCCOC
Details	solvation free energy, 298 K [kcal/mol]
in CCCCCl	-4.26
in ClC(Cl)(Cl)Cl	-4.39
in ClCCl	-4.71

Clc1c(Cl)c(Cl)c(-c2c(Cl)c(Cl)c(Cl)c(Cl)c2Cl)c(Cl)c1Cl
Details	solvation free energy, 298 K [kcal/mol]
in CCCCCCCCC=CCCCCCCCC(=O)OCC(COC(=O)CCCCCCCC=CCCCCCCCC)OC(=O)CCCCCCCC=CCCCCCCCC	-14.6
in O	-3.05

Cl
Details	solvation free energy, 298 K [kcal/mol]
in C=CCCCCCCCCCCCCCC	-0.82
in ClC(Cl)(Cl)Cl	-0.86

O=c1[nH]cc(F)c(=O)[nH]1
Details	solvation free energy, 298 K [kcal/mol]
in O	-16.9

Oc1ccc(Cl)cc1Cl
Details	solvation free energy, 298 K [kcal/mol]
in CCCCCC	-6.8
in CCCCCCC	-6.85
in CCCCCCCC	-6.82
in CCCCCCCCC=CCCCCCCCC(=O)OCC(COC(=O)CCCCCCCC=CCCCCCCCC)OC(=O)CCCCCCCC=CCCCCCCCC	-7.49
in CCCCCCCCCC	-6.79
in Cc1ccc(C)cc1	-7.58
in Cc1cccc(C)c1	-7.56
in Cc1ccccc1C	-7.64
in O	-4.98

O=C(O)c1cc([N+](=O)[O-])ccc1Cl
Details	solvation free energy, 298 K [kcal/mol]
in C1CCOC1	-13.6
in CC(C)(C)O	-13.1
in CC(C)CCO	-12.8
in CC(C)CO	-12.7
in CC(C)O	-13.1
in CC(C)OC(C)C	-12
in CCC(C)O	-12.9
in CCCC(C)O	-12.8
in CCCCCCCCCCO	-12.4
in CCCCCCCCO	-12.6
in CCCCCCCO	-12.6
in CCCCCCO	-12.6
in CCCCCO	-12.8
in CCCCO	-12.9
in CCCCOC(C)=O	-12.4
in CCCO	-13
in CCCOC(C)=O	-12.6
in CCO	-13.2
in CCOC(C)=O	-12.8
in CCOCC	-12.8
in COC(C)=O	-12.9
in O	-9.48

ClC1=C(Cl)C2(Cl)C3C4C=CC(C4)C3C1(Cl)C2(Cl)Cl (stereo unspecified)
Details	solvation free energy, 298 K [kcal/mol]
in CCCCCCCCO	-11.3
in O	-3.75

Clc1cccc2c1Oc1ccccc1O2
Details	solvation free energy, 298 K [kcal/mol]
in O	-3.52

CCOC(=O)OCC
Details	solvation free energy, 298 K [kcal/mol]
in COC(C)(C)C	-5.35
in ClC(Cl)(Cl)Cl	-5.78
in O	-3.28

Clc1cc(-c2cc(Cl)c(Cl)c(Cl)c2)cc(Cl)c1Cl
Details	solvation free energy, 298 K [kcal/mol]
in O	-4.11

Clc1cc(Cl)c(-c2ccc(Cl)c(Cl)c2Cl)cc1Cl
Details	solvation free energy, 298 K [kcal/mol]
in CCCCCCCCO	-13.2
in O	-3.34

OCC(O)C(O)C(O)CO (stereo unspecified)
Details	solvation free energy, 298 K [kcal/mol]
in CC(C)O	-13.4
in CCCCO	-13.3
in CCO	-13.8
in CN(C)C=O	-15.4
in O	-16.6

COc1nc(NC(C)C)nc(NC(C)C)n1
Details	solvation free energy, 298 K [kcal/mol]
in O	-9.69

CN1CCCC1c1cccnc1 (stereo unspecified)
Details	solvation free energy, 298 K [kcal/mol]
in O	-7.98

c1ccc2cc3ccccc3cc2c1
Details	solvation free energy, 298 K [kcal/mol]
in Brc1ccccc1	-11.6
in C1CCOC1	-11.9
in C1COCCO1	-11.5
in CC(=O)N(C)C	-11.5
in CC(C)(C)O	-9.71
in CC(C)=O	-11.2
in CC(C)CC(C)(C)C	-9.93
in CC(C)CC(C)O	-9.89
in CC(C)CCCC(C)CCO	-10.2
in CC(C)CCO	-9.93
in CC(C)CO	-9.77
in CC(C)O	-10
in CC(C)OC(C)C	-10.5
in CC(C)OCCO	-10.8
in CC(O)COC(C)(C)C	-10.5
in CCC(C)(C)O	-9.99
in CCC(C)=O	-11.3
in CCC(C)O	-9.9
in CCCC(=O)OC	-11.2
in CCCC(C)CO	-10
in CCCC(C)O	-9.99
in CCCCC(CC)CO	-10.1
in CCCCCC	-10.2
in CCCCCCC	-10.2
in CCCCCCCC	-10.2
in CCCCCCCCCC	-10.3
in CCCCCCCCCCO	-10.5
in CCCCCCCCO	-10.3
in CCCCCCCO	-10.3
in CCCCCCO	-10.3
in CCCCCO	-10.2
in CCCCCOC(C)=O	-11.1
in CCCCCl	-11.2
in CCCCO	-10.1
in CCCCOC(C)=O	-11.1
in CCCCOCCCC	-10.6
in CCCCOCCO	-10.8
in CCCO	-10
in CCCOC(C)=O	-11.1
in CCCOCCO	-10.8
in CCO	-10.4
in CCOC(C)=O	-11.1
in CCOCC	-10.9
in CCOCCO	-10.7
in CN1CCCC1=O	-12
in CN(C)C=O	-11.6
in CNC=O	-10.4
in CO	-9.89
in COC(C)(C)C	-10.7
in COC(C)=O	-11.1
in COC(C)CCO	-10.7
in COCCO	-10.8
in Cc1ccc(C)cc1	-11.2
in Cc1cccc(C)c1	-11.3
in Cc1ccccc1C	-11.5
in ClC(Cl)(Cl)Cl	-11.2
in ClC(Cl)Cl	-11.5
in ClCCl	-11.8
in Clc1ccccc1	-11.5
in Fc1ccccc1	-11.3
in N#Cc1ccccc1	-11.4
in O	-4.12
in O=C1CCCCC1	-11.6
